Data reported in the supplement of paper PMC8967900.

Experiments:
Assay in all cases: selective drug sensitivity score (sDSS, relative to normal bone marrow) (sDSS (score)); higher = more potent and effective on the cell line relative to normal bone marrow cells
Details in all cases: 72 h
[1] = test system: COG-LL-402h
[2] = test system: KOPN-8
[3] = test system: MN-60
[4] = test system: HPB-ALL
[5] = test system: ALL-PO
[6] = test system: P12-ICHIKAWA
[7] = test system: NALL-1
[8] = test system: DND-41
[9] = test system: COG-LL-332h
[10] = test system: PEER
[11] = test system: NALM-6
[12] = test system: JURKAT
[13] = test system: HAL-01
[14] = test system: P30-OHKUBO
[15] = test system: COG-LL-319h
[16] = test system: TMD5
[17] = test system: COG-LL-394h
[18] = test system: REH
[19] = test system: KASUMI-2
[20] = test system: MHH-CALL-4
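Note: ALL cell lines in 384-well plates, five doses spanning 10,000-fold, each plate scaled between vehicle and 100 µmol/L benzalkonium chloride controls, sDSS an adapted area-under-curve metric.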

CC(C)C[C@H](NC(=O)[C@@H](COC(C)(C)C)NC(=O)[C@H](Cc1ccc(O)cc1)NC(=O)[C@H](CO)NC(=O)[C@H](Cc1c[nH]c2ccccc12)NC(=O)[C@H](Cc1cnc[nH]1)NC(=O)[C@@H]1CCC(=O)N1)C(=O)N[C@@H](CCCNC(=N)N)C(=O)N1CCC[C@H]1C(=O)NNC(N)=O [Goserelin] (top concentration 10000 nM)
selective drug sensitivity score [1]: -0.06
selective drug sensitivity score [2]: -0.06
selective drug sensitivity score [3]: -0.06
selective drug sensitivity score [4]: -0.06
selective drug sensitivity score [5]: -0.06
selective drug sensitivity score [6]: -0.06
selective drug sensitivity score [7]: -0.06
selective drug sensitivity score [8]: -0.06
selective drug sensitivity score [9]: -0.06
selective drug sensitivity score [10]: -0.06
selective drug sensitivity score [11]: -0.06
selective drug sensitivity score [12]: -0.06
selective drug sensitivity score [13]: -0.06
selective drug sensitivity score [14]: -0.06
selective drug sensitivity score [15]: 4.84
selective drug sensitivity score [16]: -0.06
selective drug sensitivity score [17]: -0.06
selective drug sensitivity score [18]: 0.14
selective drug sensitivity score [19]: -0.06
selective drug sensitivity score [20]: 0.14

CN1CCN(C2CCN(C(=O)Nc3cc(Oc4ccc(NC(=O)C5(C(=O)Nc6ccc(F)cc6)CC5)c(F)c4)ccn3)CC2)CC1 [Golvatinib] (top concentration 2500 nM)
selective drug sensitivity score [1]: -0.14
selective drug sensitivity score [2]: -0.14
selective drug sensitivity score [3]: -0.14
selective drug sensitivity score [4]: 6.76
selective drug sensitivity score [5]: 3.16
selective drug sensitivity score [6]: -0.14
selective drug sensitivity score [7]: -0.14
selective drug sensitivity score [8]: -0.04
selective drug sensitivity score [9]: 0.86
selective drug sensitivity score [10]: 2.46
selective drug sensitivity score [11]: 1.06
selective drug sensitivity score [12]: -0.14
selective drug sensitivity score [13]: 0.76
selective drug sensitivity score [14]: 0.56
selective drug sensitivity score [15]: -0.14
selective drug sensitivity score [16]: 0.76
selective drug sensitivity score [17]: 2.26
selective drug sensitivity score [18]: 2.46
selective drug sensitivity score [19]: -0.14
selective drug sensitivity score [20]: -0.14

O=C1NC(=O)[C@@H](c2cn3c4c(cccc24)CCC3)[C@@H]1c1c[nH]c2ccccc12 [Tivantinib] (top concentration 1000 nM)
selective drug sensitivity score [1]: 2.38
selective drug sensitivity score [2]: 3.08
selective drug sensitivity score [3]: 3.78
selective drug sensitivity score [4]: 2.88
selective drug sensitivity score [5]: 2.08
selective drug sensitivity score [6]: 3.68
selective drug sensitivity score [7]: 4.78
selective drug sensitivity score [8]: 0.78
selective drug sensitivity score [9]: 3.48
selective drug sensitivity score [10]: 4.38
selective drug sensitivity score [11]: 5.08
selective drug sensitivity score [12]: 3.98
selective drug sensitivity score [13]: 5.78
selective drug sensitivity score [14]: 6.58
selective drug sensitivity score [15]: 3.58
selective drug sensitivity score [16]: 5.38
selective drug sensitivity score [17]: -0.42
selective drug sensitivity score [18]: 7.78
selective drug sensitivity score [19]: 0.68
selective drug sensitivity score [20]: 4.88

Clc1ccccc1C(c1ccccc1)(c1ccccc1)n1cccn1 [TRAM-34] (top concentration 1000 nM)
selective drug sensitivity score [1]: -0.08
selective drug sensitivity score [2]: -0.08
selective drug sensitivity score [3]: -0.08
selective drug sensitivity score [4]: -0.08
selective drug sensitivity score [5]: -0.08
selective drug sensitivity score [6]: -0.08
selective drug sensitivity score [7]: -0.08
selective drug sensitivity score [8]: -0.08
selective drug sensitivity score [9]: -0.08
selective drug sensitivity score [10]: -0.08
selective drug sensitivity score [11]: -0.08
selective drug sensitivity score [12]: -0.08
selective drug sensitivity score [13]: 2.72
selective drug sensitivity score [14]: 1.12
selective drug sensitivity score [15]: -0.08
selective drug sensitivity score [16]: -0.08
selective drug sensitivity score [17]: -0.08
selective drug sensitivity score [18]: 0.22
selective drug sensitivity score [19]: -0.08
selective drug sensitivity score [20]: -0.08

COc1cc(CCc2cc(NC(=O)c3ccc(N4CC(C)NC(C)C4)cc3)n[nH]2)cc(OC)c1 (stereo not given) [AZD4547] (top concentration 1000 nM)
selective drug sensitivity score [1]: -0.14
selective drug sensitivity score [2]: -0.14
selective drug sensitivity score [3]: -0.14
selective drug sensitivity score [4]: -0.14
selective drug sensitivity score [5]: 0.46
selective drug sensitivity score [6]: -0.14
selective drug sensitivity score [7]: -0.14
selective drug sensitivity score [8]: 1.66
selective drug sensitivity score [9]: -0.04
selective drug sensitivity score [10]: -0.14
selective drug sensitivity score [11]: -0.14
selective drug sensitivity score [12]: -0.14
selective drug sensitivity score [13]: -0.14
selective drug sensitivity score [14]: -0.14
selective drug sensitivity score [15]: -0.04
selective drug sensitivity score [16]: -0.14
selective drug sensitivity score [17]: 0.16
selective drug sensitivity score [18]: -0.14
selective drug sensitivity score [19]: 0.26
selective drug sensitivity score [20]: -0.14

O=C(NOCCO)c1ccc2cncn2c1Nc1ccc(I)cc1F [GDC-0623] (top concentration 2500 nM)
selective drug sensitivity score [1]: -3.2
selective drug sensitivity score [2]: -1.2
selective drug sensitivity score [3]: -3.4
selective drug sensitivity score [4]: 3.6
selective drug sensitivity score [5]: -3.3
selective drug sensitivity score [6]: -1.7
selective drug sensitivity score [7]: -0.5
selective drug sensitivity score [8]: 0.2
selective drug sensitivity score [9]: -1.8
selective drug sensitivity score [10]: -0.1
selective drug sensitivity score [11]: 3.8
selective drug sensitivity score [12]: -3.2
selective drug sensitivity score [13]: 3.1
selective drug sensitivity score [14]: -2.4
selective drug sensitivity score [15]: -2.1
selective drug sensitivity score [16]: -0.7
selective drug sensitivity score [17]: -3.4
selective drug sensitivity score [18]: -3.4
selective drug sensitivity score [19]: 0.3
selective drug sensitivity score [20]: -2.1

Cc1c2oc3c(C)ccc(C(=O)N[C@@H]4C(=O)N[C@H](C(C)C)C(=O)N5CCC[C@H]5C(=O)N(C)CC(=O)N(C)[C@@H](C(C)C)C(=O)O[C@@H]4C)c3nc-2c(C(=O)N[C@@H]2C(=O)N[C@H](C(C)C)C(=O)N3CCC[C@H]3C(=O)N(C)CC(=O)N(C)[C@@H](C(C)C)C(=O)O[C@@H]2C)c(N)c1=O [Dactinomycin] (top concentration 1000 nM)
selective drug sensitivity score [1]: 15.2
selective drug sensitivity score [2]: 17.8
selective drug sensitivity score [3]: 8.94
selective drug sensitivity score [4]: 6.14
selective drug sensitivity score [5]: 8.24
selective drug sensitivity score [6]: 0.44
selective drug sensitivity score [7]: 1.44
selective drug sensitivity score [8]: 11
selective drug sensitivity score [9]: 14.5
selective drug sensitivity score [10]: 0.64
selective drug sensitivity score [11]: 12.5
selective drug sensitivity score [12]: 2.64
selective drug sensitivity score [13]: 1.04
selective drug sensitivity score [14]: 19.1
selective drug sensitivity score [15]: 5.94
selective drug sensitivity score [16]: 7.84
selective drug sensitivity score [17]: 12.2
selective drug sensitivity score [18]: 16.3
selective drug sensitivity score [19]: 15
selective drug sensitivity score [20]: 11.6

C[C@@H]1CCN(C(=O)CC#N)C[C@@H]1N(C)c1ncnc2[nH]ccc12 [Tofacitinib] (top concentration 5000 nM)
selective drug sensitivity score [1]: -7.86
selective drug sensitivity score [2]: -7.66
selective drug sensitivity score [3]: -7.86
selective drug sensitivity score [4]: -7.86
selective drug sensitivity score [5]: -7.86
selective drug sensitivity score [6]: -7.86
selective drug sensitivity score [7]: -7.86
selective drug sensitivity score [8]: 1.74
selective drug sensitivity score [9]: -7.86
selective drug sensitivity score [10]: -4.66
selective drug sensitivity score [11]: -7.86
selective drug sensitivity score [12]: -7.86
selective drug sensitivity score [13]: -7.86
selective drug sensitivity score [14]: -6.66
selective drug sensitivity score [15]: -7.86
selective drug sensitivity score [16]: -7.86
selective drug sensitivity score [17]: -7.86
selective drug sensitivity score [18]: -7.66
selective drug sensitivity score [19]: -7.86
selective drug sensitivity score [20]: -4.96

CC(O)c1cc(C(=O)N[C@@H](C)Cn2ccc(-c3ccc(C#N)c(Cl)c3)n2)n[nH]1 (stereo not given in full) [ODM-201] (top concentration 2500 nM)
selective drug sensitivity score [1]: 4.62
selective drug sensitivity score [2]: 0.02
selective drug sensitivity score [3]: -0.28
selective drug sensitivity score [4]: 0.12
selective drug sensitivity score [5]: 0.52
selective drug sensitivity score [6]: 0.22
selective drug sensitivity score [7]: -0.28
selective drug sensitivity score [8]: 2.12
selective drug sensitivity score [9]: 1.52
selective drug sensitivity score [10]: 1.02
selective drug sensitivity score [11]: 1.22
selective drug sensitivity score [12]: 0.72
selective drug sensitivity score [13]: 1.42
selective drug sensitivity score [14]: 0.22
selective drug sensitivity score [15]: 10.6
selective drug sensitivity score [16]: -0.28
selective drug sensitivity score [17]: -0.28
selective drug sensitivity score [18]: 0.02
selective drug sensitivity score [19]: -0.28
selective drug sensitivity score [20]: -0.28
